In brackets after ≈: the same amount, converted by molar mass.
Assays:
[1] = Effective permeability of compound assessed as membrane retention at pH 7.4 at 200 uM after 5 hrs by PAMPA relative to control; type: ADME; details: pH 7.4, 5 h
[2] = Percentage unbound in human plasma at 5 uM after 6 hrs by equilibrium dialysis method; type: ADME, cell-free; details: for Fu: 6 h, 5 µM
[3] = Dissociation constant, pKa of the compound at 100 uM by capillary electrophoresis; type: physicochemical; details: for pKa: 100 µM
physchem [4] = details: aqueous phosphate buffer, pH 7.4
[5] = octanol/water, pH 7.4, 1 h
[6] = Effective permeability of compound at pH 7.4 at 200 uM after 5 hrs by PAMPA; type: ADME; details: for Papp at 5 h, 200 µM: PAMPA, pH 7.4, read-out: Peff; for Peff: pampa, pH 7.4, 5 h, 200 µM, BLD = below limit of detection
[7] = buffer, pH 7.4, 24 h, 200 µM
physchem [8] = details: 1-octanol/aqueous buffer, pH 7.4
[9] = Apparent permeability of compound at pH 7.4 at 200 uM by PAMPA; type: physicochemical; details: pH 7.4, 200 µM, BLD = below limit of detection

Row | SMILES | R% [1] | Fu [2] | solubility kinetic at 24 h, 200 µM (physchem [4]) | logD [5] | further results
1 | CS(=O)(=O)NCCCc1ccccc1 | 8.1% | 37.27% | ≥ 200 µM | 1.42 | pKa [3]: > 12
2 | O=C(CCc1ccccc1)NO | 0.03% | 29% | ≥ 200 µM | 0.71 | –
3 | O=C1NC(=O)C(Cc2ccccc2)O1 (stereo unspecified) | -0.6% | 14% | ≥ 200 µM | -0.16 | –
4 | O=P(O)(O)CCc1ccccc1 | -2.7% | 31% | 152 µM (≈ 28.4 µg/mL) | – | Papp at 5 h, 200 µM [6]: 0.094 ×10⁻⁶ cm/s
5 | CC(=O)N(O)CCc1ccccc1 | 1.1% | 37% | ≥ 200 µM | 1.52 | –
6 | O=C1NC(=O)C(Cc2ccccc2)S1 (stereo unspecified) | 5.5% | 3.4% | 200 µM (≈ 41.5 µg/mL) | 1.07 | –
7 | Oc1c(F)ccc(Cc2ccccc2)c1F | -32% | 0.52% | 149 µM (≈ 32.7 µg/mL) | 3.56 | –
8 | CC(=O)NOCCc1ccccc1 | -2.9% | 64% | 200 µM (≈ 35.8 µg/mL) | 1.18 | Papp at 5 h, 200 µM [6]: 4.6 ×10⁻⁶ cm/s
9 | [O-][S+](Cc1ccccc1)c1ccccc1O (stereo unspecified) | 1.1% | 12% | ≥ 200 µM | 2.16 | –
10 | Oc1ccccc1SCc1ccccc1 | – | – | – | > 3.78 | Kinetic_solubility [7]: ND(Unstable)
11 | CS(=O)(=O)NC(=O)NCc1ccccc1 | 3% | 31% | 198 µM (≈ 45.1 µg/mL) | -1.23 | –
12 | Oc1c(F)cc(Cc2ccccc2)cc1F | 49% | 0.26% | 109 µM (≈ 24 µg/mL) | 3.34 | –
13 | Oc1cc(Cc2ccccc2)on1 | -11% | 0.1% | ≥ 200 µM | 0.46 | –
14 | CONC(=O)CCc1ccccc1 | 5.3% | 68% | ≥ 200 µM | 1.16 | –
15 | CC1=C(O)CC(Cc2ccccc2)C1=O (stereo unspecified) | -5.1% | – | > 200 µM | – | Papp at 5 h, 200 µM [6]: 0.26 ×10⁻⁶ cm/s; fraction unbound at 6 h, 5 µM [2]: 0.111; pKa at 100 µM [3]: 4.47; logD at 1 h (physchem [8]): -0.33
16 | O=c1[nH]c(CCc2ccccc2)no1 | -4% | 1.1% | ≥ 200 µM | 0.32 | –
17 | NS(=O)(=O)CCc1ccccc1 | 4.2% | 60.72% | ≥ 200 µM | 0.96 | –
18 | O=C1C=C(O)CC1Cc1ccccc1 (stereo unspecified) | -3% | 7.96% | 195 µM (≈ 36.7 µg/mL) | -0.7 | –

Row | SMILES | R% [1] | Fu [2] | solubility kinetic at 24 h, 200 µM (physchem [4]) | logD [5] | further results
19 | O=c1[nH]c(CCc2ccccc2)ns1 | -0.7% | 1.17% | 200 µM (≈ 41.4 µg/mL) | 1.66 | –
20 | O=S(=O)(Cc1ccccc1)c1ccccc1O | 7.2% | 1.59% | 197 µM (≈ 48.9 µg/mL) | 1.76 | –
21 | O=c1c(O)c(Cc2ccccc2)c1=O | -13% | 8.19% | 166 µM (≈ 31.2 µg/mL) | -0.84 | Peff [6]: BLD; pKa [3]: < 2; logPapp [9]: BLD
22 | O=C1CC(c2ccccc2)C=C1O (stereo unspecified) | -8.6% | – | 192 µM (≈ 33.5 µg/mL) | 1.71 | –
23 | c1ccc(CCc2nnn[nH]2)cc1 | 4.7% | 1.12% | ≥ 200 µM | -0.25 | –
24 | CS(=O)(=O)NC(=O)CCc1ccccc1 | 1.4% | 12.8% | 200 µM (≈ 45.4 µg/mL) | – | –
25 | CN(C)S(=O)(=O)NC(=O)CCc1ccccc1 | 2.2% | 8.1% | 199 µM (≈ 51 µg/mL) | 0.17 | pKa [3]: 5.86
26 | O=[PH](O)CCc1ccccc1 | -2.1% | 8.86% | 128 µM (≈ 21.7 µg/mL) | – | –
27 | O=C1CCC(Cc2ccccc2)=C1O | 1.5% | 16% | 195 µM (≈ 36.7 µg/mL) | 1.85 | –
28 | O=S([O-])CCc1ccccc1.[Na+] | -6.8% | 5% | ≥ 200 µM | -1.3 | Peff [6]: BLD; logPapp [9]: BLD
29 | S=c1[nH]c(CCc2ccccc2)no1 | -3.4% | 0.65% | ≥ 200 µM | -0.25 | –
30 | O=C1CC(=O)C(Cc2ccccc2)N1 (stereo unspecified) | 1.3% | – | ≥ 200 µM | -0.35 | Papp at 5 h, 200 µM [6]: 2.5 ×10⁻⁶ cm/s
31 | O=S(=O)([O-])CCc1ccccc1.[Na+] | -6.1% | 0.31% | ≥ 200 µM | -1.45 | pKa [3]: < 2
32 | O=c1c(O)c(NCc2ccccc2)c1=O | -6.6% | 6.45% | ≥ 200 µM | – | pKa [3]: < 2
33 | O=C1CCC(O)=C1Cc1ccccc1 | -8.8% | 14.3% | 199 µM (≈ 37.5 µg/mL) | -0.6 | –
34 | O=C(O)CCc1ccccc1 | -7% | 9.5% | 111 µM (≈ 16.6 µg/mL) | – | –
35 | CC(=O)NC(=O)NCc1ccccc1 | -3.3% | 77% | ≥ 200 µM | 1.42 | pKa [3]: > 12
